Test [1] concerns the target T1, ΔF508-CFTR (Homo sapiens, UniProt P13569, DEL508-508).
T1 construct: host or cells: CFBE41o-, doxycycline-inducible
The test can be described thus: CFTR cell surface levels using HRP-tagged ΔF508-CFTR expressing CFBE cells, intrinsic corrector capacity. It counts as cell-based. To be noted: for EC50: read-out: EC50. The essentials:
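Here the cells express ΔF508-CFTR with horseradish peroxidase inserted in extracellular loop 4, so only rescued channel at the surface gives luminescent signal. Compounds act on their own, 20 h at the reduced temperature of 33 °C; values are percent activity relative to DMSO and a 3 μM corrector.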

Test [2] concerns the target T1, ΔF508-CFTR. The test can be described thus: CFTR cell surface levels using HRP-tagged ΔF508-CFTR expressing CFBE cells, in the presence of a co-corrector. It counts as cell-based. To be noted: HRP-tagged ΔF508-CFTR expressing CFBE cells, in the presence of 3 μM co-corrector; for EC50: read-out: EC50. The essentials: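 Cells were seeded with 0.5 μg/mL doxycycline and held 68 h at 37 °C. Test compounds plus 3 μM co-corrector (final 0.1% DMSO) were then added for 20 h at 33 °C. Washed cells received HRP substrate, and luminescence was normalized between DMSO and 3 μM co-corrector controls.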

Where [3] appears, read: HRP-tagged ΔF508-CFTR expressing CFBE cells, intrinsic corrector capacity (no co-corrector), 33° C., 20 hours.
Where [4] appears, read: HRP-tagged ΔF508-CFTR CFBE41o- cells, compounds alone (intrinsic corrector capacity), 20 hours at 33° C., positive control 3 μM corrector.
The mark [5] stands for this setting: HRP-tagged ΔF508-CFTR CFBE41o- cells, compounds alone (intrinsic corrector capacity), 20 hours at 33° C.

T1 sequence (P13569 with tags, fused parts or gaps DEL508-508): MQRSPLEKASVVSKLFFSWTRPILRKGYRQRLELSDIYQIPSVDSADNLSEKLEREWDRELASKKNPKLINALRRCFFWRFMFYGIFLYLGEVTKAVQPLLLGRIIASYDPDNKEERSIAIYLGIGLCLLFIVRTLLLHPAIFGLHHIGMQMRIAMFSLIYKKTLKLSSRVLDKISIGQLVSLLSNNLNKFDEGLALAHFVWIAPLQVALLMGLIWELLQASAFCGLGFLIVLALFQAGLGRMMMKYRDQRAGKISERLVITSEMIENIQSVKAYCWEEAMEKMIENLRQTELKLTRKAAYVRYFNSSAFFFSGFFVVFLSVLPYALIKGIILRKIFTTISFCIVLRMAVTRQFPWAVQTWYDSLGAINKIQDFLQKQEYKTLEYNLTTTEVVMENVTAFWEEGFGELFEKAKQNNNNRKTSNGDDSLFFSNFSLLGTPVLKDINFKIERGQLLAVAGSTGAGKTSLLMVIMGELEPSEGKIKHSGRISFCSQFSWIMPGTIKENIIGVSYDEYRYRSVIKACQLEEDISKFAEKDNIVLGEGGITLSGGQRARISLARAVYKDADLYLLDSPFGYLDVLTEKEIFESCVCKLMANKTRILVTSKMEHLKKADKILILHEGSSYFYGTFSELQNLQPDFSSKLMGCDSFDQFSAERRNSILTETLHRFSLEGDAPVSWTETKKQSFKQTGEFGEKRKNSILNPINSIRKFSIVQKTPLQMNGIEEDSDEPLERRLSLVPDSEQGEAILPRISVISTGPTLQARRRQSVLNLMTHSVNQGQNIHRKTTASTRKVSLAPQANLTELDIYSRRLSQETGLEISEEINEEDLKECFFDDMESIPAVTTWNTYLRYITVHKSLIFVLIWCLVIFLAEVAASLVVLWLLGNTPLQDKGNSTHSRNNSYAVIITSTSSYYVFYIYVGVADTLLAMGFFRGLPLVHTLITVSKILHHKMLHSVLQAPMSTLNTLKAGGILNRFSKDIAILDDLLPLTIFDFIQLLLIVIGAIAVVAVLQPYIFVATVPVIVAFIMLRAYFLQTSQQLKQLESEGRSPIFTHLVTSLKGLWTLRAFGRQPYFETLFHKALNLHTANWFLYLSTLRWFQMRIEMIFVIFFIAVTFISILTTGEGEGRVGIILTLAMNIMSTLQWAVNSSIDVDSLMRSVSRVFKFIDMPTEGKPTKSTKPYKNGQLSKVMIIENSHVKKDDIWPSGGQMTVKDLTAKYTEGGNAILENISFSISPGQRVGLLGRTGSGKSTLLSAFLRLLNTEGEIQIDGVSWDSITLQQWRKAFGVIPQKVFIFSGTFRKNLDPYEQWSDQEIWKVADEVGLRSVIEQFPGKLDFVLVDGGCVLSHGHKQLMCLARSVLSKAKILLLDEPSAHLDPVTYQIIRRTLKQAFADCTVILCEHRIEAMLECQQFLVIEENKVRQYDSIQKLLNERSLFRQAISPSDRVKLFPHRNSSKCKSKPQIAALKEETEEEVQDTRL

Take `CN(C)CC(CN(C)C)Oc1cc(C(=O)O)nc2c1c(C1CCC1)nn2-c1ccccc1` [compound 638, 4-{[1,3-bis(dimethylamino)propan-2-yl]oxy}-3-cyclobutyl-1-phenyl-1H-pyrazolo[3,4-b]pyridine-6-carboxylic acid]: on ΔF508-CFTR [1] (setting [3]), the “% Activation” value was found to be 24.93% and the EC50 (in general, the concentration needed to bring the measured effect to its halfway point) was above 10000 nM. Besides, on ΔF508-CFTR [2], the “% Activation” value turned out to be 175.15% and the EC50 stood at 6660 nM.
Consider `Cc1nn(-c2cccc(N3CCOCC3)c2)c2nc(C(=O)O)cc(-c3ccc(N4CCOCC4)cc3)c12` [compound 32, 3-methyl-1-[3-(morpholin-4-yl)phenyl]-4-[4-(morpholin-4-yl)phenyl]-1H-pyrazolo[3,4-b]pyridine-6-carboxylic acid], for which the “% Activation” value at ΔF508-CFTR [1] (setting [4]) stood at 176.7%; at ΔF508-CFTR [2], 399.6%. Besides, the results for the EC50 on ΔF508-CFTR [1] (setting [5]) and at ΔF508-CFTR [2] were 638 nM and 1390 nM, respectively.
Taken in the same sequence, the figures for `Cc1nn(-c2ccccc2)c2nc(C(=O)O)cc(C(=O)N3CCCCC3)c12` [compound 158, 3-methyl-1-phenyl-4-(piperidine-1-carbonyl)-1H-pyrazolo[3,4-b]pyridine-6-carboxylic acid] were 1.521%, 112.2%, above 10000 nM and above 10000 nM.
Take `COCC(COC)Oc1cc(C(=O)O)nc2c1c(C(C)C)nn2-c1ccc(F)cc1` [compound 654, 4-[(1,3-dimethoxypropan-2-yl)oxy]-1-(4-fluorophenyl)-3-(propan-2-yl)-1H-pyrazolo[3,4-b]pyridine-6-carboxylic acid]: on ΔF508-CFTR [1] (setting [3]), the “% Activation” value came to 66.19% and the EC50 was 3330 nM. Also, on ΔF508-CFTR [2], the “% Activation” value is 245.5% and the concentration giving a half-maximal response (EC50) stood at 3330 nM.
With `COCC1CCN(c2cc(C(=O)O)nc3c2c(C(C)C)nn3CC(C)C)CC1` [compound 548, 4-[4-(methoxymethyl)piperidin-1-yl]-1-(2-methylpropyl)-3-(propan-2-yl)-1H-pyrazolo[3,4-b]pyridine-6-carboxylic acid], on ΔF508-CFTR [1] (setting [3]), the “% Activation” value stood at 88.93% and the EC50 stood at 2540 nM. On ΔF508-CFTR [2], the “% Activation” value is given as 306% and the EC50 came to 3330 nM.
As to `COCC(C)N1CCN(c2cc(C(=O)O)nc3c2c(C(C)C)nn3-c2ccc(F)cc2)CC1` (stereo not drawn) [compound 793, 1-(4-fluorophenyl)-4-[4-(1-methoxypropan-2-yl)piperazin-1-yl]-3-(propan-2-yl)-1H-pyrazolo[3,4-b]pyridine-6-carboxylic acid], the “% Activation” value is 157.7% on ΔF508-CFTR [1] (setting [3]) and 363.5% at ΔF508-CFTR [2]. Further, the EC50 on ΔF508-CFTR [1] (setting [3]) and at ΔF508-CFTR [2] was 1670 nM in each case.
`CC(C)c1nn(C2CCCCC2)c2nc(C(=O)O)cc(OCC3CCOCC3)c12` [compound 603, 1-cyclohexyl-4-[(oxan-4-yl)methoxy]-3-(propan-2-yl)-1H-pyrazolo[3,4-b]pyridine-6-carboxylic acid]: at ΔF508-CFTR [1] (setting [3]), the “% Activation” value was determined as 92.66% and the concentration giving a half-maximal response (EC50) was found to be 1760 nM. Besides, at ΔF508-CFTR [2], the “% Activation” value turned out to be 273.3% and the EC50 amounted to 870 nM.
Consider `CC(=O)N1CC2CN(c3cc(C(=O)O)nc4c3c(C(C)C)nn4-c3cccc(C)c3)CC2C1` (stereo not drawn) [compound 233, 4-(5-acetylhexahydropyrrolo[3,4-c]pyrrol-2(11/)-yl)-1-(3-methylphenyl)-3-(propan-2-yl)-1H-pyrazolo[3,4-b]pyridine-6-carboxylic acid], for which the “% Activation” value amounted to 72.33% on ΔF508-CFTR [1] (setting [4]) and 249.55% on ΔF508-CFTR [2]. Also, the EC50 at ΔF508-CFTR [1] (setting [5]) was 3030 nM; on ΔF508-CFTR [2] it was 3340 nM.
Taken in the same sequence, the figures for `Cc1nn(-c2ccccc2)c2nc(C(=O)O)cc(-c3ccc(N4CCOCC4)cc3Cl)c12` [compound 26, 4-[2-chloro-4-(morpholin-4-yl)phenyl]-3-methyl-1-phenyl-1H-pyrazolo[3,4-b]pyridine-6-carboxylic acid] were 83.24%, 258.4%, 1270 nM and 1090 nM.

For the origin of these results see patent US9796711B2, “Substituted pyrazolo[3,4-b]pyridin-6-carboxylic acids and method of use” (AbbVie S.àr.l., priority 2015, dated 2017).
